According to ChEMBL document CHEMBL4842377, “Synthesis and biological evaluation of selective histone deacetylase 6 inhibitors as multifunctional agents against Alzheimer's disease” (Eur J Med Chem, 2021):
The source made the active and inactive calls. The calls are words filed in the database; no cut-off is given here.

Experiments:
SH-SY5Y [1] = assay: Neuroprotective activity against amyloid beta (1 to 42)-induced cytotoxicity in human SH-SY5Y cells assessed as increase in cell viability at 3 uM after 24 hrs by MTT assay (reference value: 60.4%); assay type: functional
[2] = target: T1, Protein deacetylase HDAC6 (Homo sapiens, UniProt Q9UBN7); assay: Inhibition of human HDAC6 using fluorogenic substrate incubated for 1 hrs by fluorescence plate reader assay
T1 sequence (Q9UBN7 whole entry): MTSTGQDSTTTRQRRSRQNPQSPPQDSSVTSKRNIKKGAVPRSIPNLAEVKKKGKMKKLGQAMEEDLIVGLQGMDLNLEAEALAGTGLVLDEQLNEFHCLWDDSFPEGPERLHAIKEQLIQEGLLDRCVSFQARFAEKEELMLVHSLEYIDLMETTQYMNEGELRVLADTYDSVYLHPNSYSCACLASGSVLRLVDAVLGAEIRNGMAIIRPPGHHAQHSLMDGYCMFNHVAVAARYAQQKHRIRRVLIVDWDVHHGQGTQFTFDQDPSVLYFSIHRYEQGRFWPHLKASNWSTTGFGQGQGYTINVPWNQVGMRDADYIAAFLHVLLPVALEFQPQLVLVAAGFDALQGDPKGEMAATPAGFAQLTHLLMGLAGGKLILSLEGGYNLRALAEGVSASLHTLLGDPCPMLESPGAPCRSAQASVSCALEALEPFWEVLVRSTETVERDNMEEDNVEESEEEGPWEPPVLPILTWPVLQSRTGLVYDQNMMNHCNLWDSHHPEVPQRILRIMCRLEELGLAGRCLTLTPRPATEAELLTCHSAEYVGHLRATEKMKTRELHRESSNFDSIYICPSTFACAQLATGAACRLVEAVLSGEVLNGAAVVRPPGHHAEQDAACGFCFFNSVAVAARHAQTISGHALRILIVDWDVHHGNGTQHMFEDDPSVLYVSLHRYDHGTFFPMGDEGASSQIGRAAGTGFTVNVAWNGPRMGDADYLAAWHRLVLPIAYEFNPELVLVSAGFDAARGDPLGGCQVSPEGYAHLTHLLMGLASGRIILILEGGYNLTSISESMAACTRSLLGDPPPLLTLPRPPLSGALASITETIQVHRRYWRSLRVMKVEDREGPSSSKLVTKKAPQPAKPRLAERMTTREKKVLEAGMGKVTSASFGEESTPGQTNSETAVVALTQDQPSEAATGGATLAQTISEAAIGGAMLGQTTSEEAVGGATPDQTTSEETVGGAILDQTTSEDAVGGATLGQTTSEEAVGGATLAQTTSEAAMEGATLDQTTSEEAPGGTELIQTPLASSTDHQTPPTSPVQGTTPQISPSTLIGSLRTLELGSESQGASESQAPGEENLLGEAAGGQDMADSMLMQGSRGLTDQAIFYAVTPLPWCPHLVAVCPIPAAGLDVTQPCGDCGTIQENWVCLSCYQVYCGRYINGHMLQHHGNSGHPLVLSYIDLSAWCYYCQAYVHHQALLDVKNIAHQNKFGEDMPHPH

Homo sapiens [3] = species: Homo sapiens; assay: Selectivity ratio of IC50 for human HDAC6 to IC50 for human HDAC1
Homo sapiens [4] = species: Homo sapiens; assay: Selectivity ratio of IC50 for human HDAC6 to IC50 for human HDAC2
Homo sapiens [5] = species: Homo sapiens; assay: Selectivity ratio of IC50 for human HDAC6 to IC50 for human HDAC8
Homo sapiens [6] = species: Homo sapiens; assay: Selectivity ratio of IC50 for human HDAC6 to IC50 for human HDAC4
Homo sapiens [7] = species: Homo sapiens; assay: Selectivity ratio of IC50 for human HDAC6 to IC50 for human HDAC10
Homo sapiens [8] = species: Homo sapiens; assay: Selectivity ratio of IC50 for human HDAC6 to IC50 for human HDAC11
[9] = target: T2, Protein deacetylase HDAC6 (Homo sapiens) (UniProt Q9UBN7); assay: Inhibition of HDAC6 in human SH-SY5Y cells assessed as increase in acetylated alpha tubulin level measured after 24 hrs by Western blot analysis; assay type: cell-based; conditions: dose 0.25-1 µM
T2 sequence (whole entry): T1 sequence (Q9UBN7 whole entry)

[10] = target: T2, Protein deacetylase HDAC6 (Homo sapiens); assay: Inhibition of HDAC6 in human SH-SY5Y cells assessed as increase in acetylated histone level measured after 24 hrs by Western blot analysis; assay type: cell-based
[11] = target: T2, Protein deacetylase HDAC6 (Homo sapiens); assay: Inhibition of HDAC6 in human SH-SY5Y cells assessed as reduction in tau phosphorylation at Ser396 residue by Western blot analysis; assay type: cell-based
[12] = target: T2, Protein deacetylase HDAC6 (Homo sapiens); assay: Inhibition of HDAC6 in human SH-SY5Y cells assessed as reduction in tau phosphorylation at Ser396 residue at 20 uM by Western blot analysis; assay type: cell-based
[13] = Disaggregation of Cu2+ induced amyloid beta (1 to 42 residues) (unknown origin) aggregation measuring reduction in fluorescence intensity at 20 uM after 24 hrs by thioflavin-T fluorescence method relative to control; design: scale not given: the % may be the effect or the level left
SH-SY5Y [14] = assay: Induction of neurite outgrowth in human SH-SY5Y cells at 10 uM incubated for 3 days by inverted microscopy; assay type: functional, cell-based; conditions: time 3.0 day

COc1cc(/C=C/C(=O)CC(=O)/C=C/c2ccc(O)c(OC)c2)ccc1O [CURCUMIN]
Activity (SH-SY5Y [1]): 74.6%

O=C(Cn1cc(CN2c3ccccc3Sc3ccccc32)cn1)NO
IC50 [2]: > 1 µM

CNC(=O)c1ccc(CN2c3ccccc3Sc3ccccc32)nc1
IC50 [2]: > 1 µM

C[C@]12CC3CC(NCc4ccc(C(=O)NO)cn4)(C1)C[C@@](C)(C3)C2
IC50 [2]: 0.537 µM

COc1ccc2c(c1)c1c(n2Cc2ccc(C(=O)NO)cn2)CCN(C)C1
IC50 [2]: 0.053 µM

CN(Cc1ccc(C(=O)NO)cn1)C12CC3C[C@@](C)(C1)C[C@](C)(C3)C2
IC50 [2]: 0.835 µM

CCNC(=O)c1ccc(CN2c3ccccc3Sc3ccccc32)nc1
IC50 [2]: > 1 µM

O=C(NO)c1ccc(CN2c3ccccc3Sc3ccccc32)nc1 [listing 1 of 2 here]
Selectivity ratio (Homo sapiens [3]): 292 | Selectivity ratio (Homo sapiens [4]): 772 | Selectivity ratio (Homo sapiens [5]): 2410 | Selectivity ratio (Homo sapiens [6]): 2220 | Selectivity ratio (Homo sapiens [7]): 3400 | Selectivity ratio (Homo sapiens [8]): 1690 | inhibition [9]: Dose-Dependent Effect | inhibition [10]: Active | inhibition [11]: Dose-Dependent Effect | inhibition [12]: 50% | Activity [13]: 40% | Activity (SH-SY5Y [14]): Active

O=C(NO)c1ccc(CN2c3ccccc3Sc3ccccc32)nc1 [listing 2 of 2 here]
IC50 [2]: 0.011 µM

O=C(/C=C/c1ccc(CN2c3ccccc3Sc3ccccc32)cc1)NO
IC50 [2]: 0.463 µM
